Here are results for 43 molecules from patent US9682931B2, “Aryloyl(oxy or amino)pentafluorosulfanylbenzene compound, pharmaceutically acceptable salt thereof, and prodrugs thereof” (UBE INDUSTRIES, LTD., priority 2013, dated 2017).

In brackets after ≈: the same amount, converted by molar mass. Structures can show the parent of a compound that is named as a salt. Where two headings read alike, the source gives them in different places.

In this assay the test system is K562 human leukemia-derived cell lines. The experiment in a line: K562 human leukemia cell-proliferation inhibition test. The class given is cell-based. The protocol: K562 Human Leukemia Cell-Proliferation Inhibition Test
A cell proliferation inhibition test using K562 cells was performed. The activity in the presence of a test substance was compared to the activity in the presence of green tea polyphenol (GTP). The materials used in the test are as follows.
Cells: K562 human leukemia-derived cell lines (DS Pharma Biomedical Co., Ltd.)
Control Substance: Green Tea Polyphenols, abbreviation: GTP (LKT Laboratories, Inc.)
Culture solution: 10% equine serum-supplemented RPMI1640 medium
A test substance and a control substance were used by dissolving each of them in DMSO. To a solution (0.99 mL) containing K562 cells in a cell concentration of 20,000 cells/mL, a test substance solution or a control substance solution (0.01 mL) was added and the cells were cultured. Seventy two hours later, a part of the cells was stained with trypan blue and viable cells were counted by a counting chamber.
In Table 2, “IC50” denotes the sample concentration inhibiting 50% of cell proliferation

Where [1] appears, read: Homo sapiens, K562, 72 h, K562 cells, 72 hours, viable cells counted with trypan blue, read-out: IC50.
Setting [2] is: K562 cells, 72 hours, viable cells counted with trypan blue.

Take `O=C(/C=C/c1cc(O)c(O)c(O)c1)Nc1ccc(S(F)(F)(F)(F)F)cc1` [Compound 24, 4-(3,4,5-trihydroxycinnamoylamino)pentafluorosulfanylbenzene]: under setting [1], the IC50 amounted to 14 µg/mL (≈ 35.2 µM).
`C=CCOc1ccc(/C=C/C(=O)Nc2ccc(S(F)(F)(F)(F)F)cc2)cc1OC` [Compound 38, 4-(4-(2-propenyloxy)-3-methoxycinnamoylamino)pentafluorosulfanylbenzene]: under setting [1], the half-inhibitory concentration (IC50) turned out to be 0.6 µg/mL (≈ 1.38 µM).
On the same count and under the same terms, the value for `C=CCc1cc(/C=C/C(=O)Nc2ccc(S(F)(F)(F)(F)F)cc2)cc(OC)c1O` [Compound 46, 4-(4-hydroxy-5-(2-propenyl)-3-methoxycinnamoylamino)pentafluorosulfanylbenzene] was 2.5 µg/mL (≈ 5.74 µM); that for `O=C(Nc1ccc(S(F)(F)(F)(F)F)cc1)c1ncccc1O` [Compound 68, 4-(3-hydroxypyridin-2-yl)carbonylaminopentafluorosulfanylbenzene] was 4.2 µg/mL (≈ 12.3 µM); that for `O=C(Nc1ccc(S(F)(F)(F)(F)F)cc1)c1c(O)cc(O)cc1O` [Compound 23, 4-(2,4,6-trihydroxybenzoylamino)pentafluorosulfanylbenzene] was 4.1 µg/mL (≈ 11 µM).
For the molecule “4-(3,5-dihydroxybenzoylamino)pentafluorosulfanylbenzene [Compound 50]”, under setting [2], the IC50 came out at 3.5 µg/mL.
With `O=C(Nc1ccc(S(F)(F)(F)(F)F)cc1)c1ccncc1F` [Compound 75, 4-(3-fluoropyridin-4-yl)carbonylaminopentafluorosulfanylbenzene], the IC50 under setting [1] is 2 µg/mL (≈ 5.84 µM).
With `C=CCOc1ccc(C(=O)Nc2ccc(S(F)(F)(F)(F)F)cc2)cc1OC` [Compound 28, 4-(4-(2-propenyloxy)-3-methoxybenzoylamino)pentafluorosulfanylbenzene], under setting [1], the IC50 is 0.8 µg/mL (≈ 1.95 µM).
For `C/C=C/Cc1cc(/C=C/C(=O)Nc2ccc(S(F)(F)(F)(F)F)cc2)cc(OC)c1O` [Compound 47, 4-(4-hydroxy-5-(2-butenyl)-3-methoxycinnamoylamino)pentafluorosulfanylbenzene], under setting [1], the half-inhibitory concentration (IC50) was found to be 3.5 µg/mL (≈ 7.79 µM).
On the same count and under the same terms, next, `O=C(Nc1ccc(S(F)(F)(F)(F)F)cc1)c1cnco1` [Compound 82, 4-(oxazol-5-yl)carbonylaminopentafluorosulfanylbenzene]: 3.6 µg/mL (≈ 11.5 µM); `C=CC(C)(C)Oc1cccc(C(=O)Nc2ccc(S(F)(F)(F)(F)F)cc2)c1` [Compound 48, 4-(3-(1,1-dimethyl-2-propenyloxy)benzoylamino)pentafluorosulfanylbenzene]: 1.9 µg/mL (≈ 4.66 µM).
The same measure, in the same setting: next, `COc1cc(/C=C/C(=O)Nc2ccc(S(F)(F)(F)(F)F)cc2)cc(OC)c1OCC=C(C)C` [Compound 43, 4-(4-(3-methyl-2-butenyloxy)-3,5-dimethoxycinnamoylamino)pentafluorosulfanylbenzene]: 2.8 µg/mL (≈ 5.67 µM).
As to `C=CC(=O)Nc1ccc(S(F)(F)(F)(F)F)cc1` [Compound 31, 4-acryloylaminopentafluorosulfanylbenzene], the IC50 (Homo sapiens, K562, 72 h) turned out to be 0.88 µg/mL (≈ 3.22 µM).
As for `O=C(Nc1ccc(S(F)(F)(F)(F)F)cc1)c1cnccn1` [Compound 79, 4-(pyrazin-2-yl)carbonylaminopentafluorosulfanylbenzene], the half-inhibitory concentration (IC50) under setting [1] is 4.2 µg/mL (≈ 12.9 µM).
`O=C(Nc1ccc(S(F)(F)(F)(F)F)cc1)c1cc2cc(O)c(O)cc2oc1=O` [Compound 74, 4-(6,7-dihydroxycoumarin-3-yl)carbonylaminopentafluorosulfanylbenzene]: under setting [1], the IC50 worked out at 5 µg/mL (≈ 11.8 µM).
`COc1ccc(/C=C/C(=O)Nc2ccc(S(F)(F)(F)(F)F)cc2)cc1O` [Compound 52, 4-(3-hydroxy-4-methoxycinnamoylamino)pentafluorosulfanylbenzene]: the IC50 under setting [1] was 0.28 µg/mL (≈ 0.708 µM).
With `C=CC(=O)Nc1cccc(S(F)(F)(F)(F)F)c1` [Compound 32, 3-acryloylaminopentafluorosulfanylbenzene], the IC50 (Homo sapiens, K562, 72 h) amounted to 4.6 µg/mL (≈ 16.8 µM).
Take `C=CCOc1cccc(C(=O)Nc2ccc(S(F)(F)(F)(F)F)cc2)c1` [Compound 64, 4-(3-allyloxybenzoylamino)pentafluorosulfanylbenzene]: the IC50 under setting [1] is 1.1 µg/mL (≈ 2.9 µM).
Still for that read-out and setting: next, `O=C(Oc1cccc(S(F)(F)(F)(F)F)c1)c1cc(O)c(O)c(O)c1` [Compound 8, 3-(3,4,5-trihydroxybenzoyloxy)pentafluorosulfanylbenzene]: 8.5 µg/mL (≈ 22.8 µM); `O=C(Nc1ccc(S(F)(F)(F)(F)F)cc1)c1ccc(O)c(F)c1` [Compound 57, 4-(4-hydroxy-3-fluorobenzoylamino)pentafluorosulfanylbenzene]: 3.3 µg/mL (≈ 9.24 µM); `O=C(Nc1ccc(S(F)(F)(F)(F)F)cc1)c1ccccn1` [Compound 71, 4-(pyridin-2-yl)carbonylaminopentafluorosulfanylbenzene]: 4.4 µg/mL (≈ 13.6 µM).
Same read-out and setting: the value for `O=C(Nc1ccc(S(F)(F)(F)(F)F)cc1)c1ccc(F)c(O)c1` [Compound 58, 4-(3-hydroxy-4-fluorobenzoylamino)pentafluorosulfanylbenzene] was 5.3 µg/mL (≈ 14.8 µM); that for `O=C(Nc1ccc(S(F)(F)(F)(F)F)cc1)c1ccnc(F)c1` [Compound 76, 4-(2-fluoropyridin-4-yl)carbonylaminopentafluorosulfanylbenzene] was 2 µg/mL (≈ 5.84 µM); that for `COc1cc(C(=O)Nc2ccc(S(F)(F)(F)(F)F)cc2)ccc1[N+](=O)[O-]` [Compound 59, 4-(4-nitro-3-methoxybenzoylamino)pentafluorosulfanylbenzene] was 1.1 µg/mL (≈ 2.76 µM).
The same measure, in the same setting: the value for `C=CCc1cc(C(=O)Nc2ccc(S(F)(F)(F)(F)F)cc2)cc(OC)c1O` [Compound 30, 4-(4-hydroxy-5-(2-propenyl)-3-methoxybenzoylamino)pentafluorosulfanylbenzene] was 0.9 µg/mL (≈ 2.2 µM).
Under “Homo sapiens, K562, 72 h”, `Nc1ccc(C(=O)Nc2ccc(S(F)(F)(F)(F)F)cc2)cc1` [Compound 63, 4-(4-aminobenzoylamino)pentafluorosulfanylbenzene hydrochloride salt] came in with an IC50 of 0.85 µg/mL.
As to `O=C(Nc1ccc(S(F)(F)(F)(F)F)cc1)c1ncccn1` [Compound 70, 4-(pyrimidin-2-yl)carbonylaminopentafluorosulfanylbenzene], under setting [1], the IC50 amounted to 1.5 µg/mL (≈ 4.61 µM).
Still for that read-out and setting: next, `COc1cc(C(=O)Nc2ccc(S(F)(F)(F)(F)F)cc2)ccc1N` [Compound 60, 4-(4-amino-3-methoxybenzoylamino)pentafluorosulfanylbenzene]: 0.1 µg/mL (≈ 0.271 µM).
Regarding `O=C(Nc1ccc(S(F)(F)(F)(F)F)cc1)c1cccc(O)c1` [Compound 65, 4-(3-hydroxybenzoylamino)pentafluorosulfanylbenzene], under setting [1], the IC50 was determined as 0.92 µg/mL (≈ 2.71 µM).
Turning to `O=C(Nc1ccc(S(F)(F)(F)(F)F)cc1)c1ccc(CO)o1` [Compound 33, 4-(5-hydroxymethylfuran-2-yl)carbonylaminopentafluorosulfanylbenzene], under setting [1], the concentration for half-maximal inhibition (IC50) was found to be 2.7 µg/mL (≈ 7.87 µM).
Take `Nc1ccc(C(=O)Nc2ccc(S(F)(F)(F)(F)F)cc2)cc1` [Compound 61, 4-(4-aminobenzoylamino)pentafluorosulfanylbenzene]: the IC50 under setting [1] is 0.086 µg/mL (≈ 0.254 µM).
On to `O=C(/C=C/c1ccc(O)c(O)c1)Nc1ccc(S(F)(F)(F)(F)F)cc1` [Compound 56, 4-(3,4-dihydroxycinnamoylamino)pentafluorosulfanylbenzene], for which, under setting [2], the IC50 was determined as 0.83 µg/mL (≈ 2.18 µM).
Regarding `C/C=C/COc1ccc(/C=C/C(=O)Nc2ccc(S(F)(F)(F)(F)F)cc2)cc1OC` [Compound 42, 4-(4-(2-butenyloxy)-3-methoxycinnamoylamino)pentafluorosulfanylbenzene], the IC50 under setting [1] is 1.7 µg/mL (≈ 3.78 µM).
Regarding `COc1cc(/C=C/C(=O)Nc2ccc(S(F)(F)(F)(F)F)cc2)cc(OC)c1O` [Compound 53, 4-(4-hydroxy-3,5-dimethoxycinnamoylamino)pentafluorosulfanylbenzene], under setting [1], the IC50 was 0.9 µg/mL (≈ 2.12 µM).
Turning to `COc1ccc(/C=C/C(=O)Nc2ccc(S(F)(F)(F)(F)F)cc2)cc1OCC=C(C)C` [Compound 41, 4-(3-(3-methyl-2-butenyloxy)-4-methoxycinnamoylamino)pentafluorosulfanylbenzene], the IC50 under setting [1] was 0.81 µg/mL (≈ 1.75 µM).
On the same count and under the same terms, next, `O=C(/C=C/c1ccc(O)cc1O)Nc1ccc(S(F)(F)(F)(F)F)cc1` [Compound 51, 4-(2,4-dihydroxycinnamoylamino)pentafluorosulfanylbenzene]: 1.2 µg/mL (≈ 3.15 µM).
The same measure, in the same setting: the value for `O=C(Nc1ccc(S(F)(F)(F)(F)F)cc1)c1ccncc1` [Compound 72, 4-(pyridin-4-yl)carbonylaminopentafluorosulfanylbenzene] was 0.1 µg/mL (≈ 0.308 µM).
The same measure, in the same setting: next, `O=C(Nc1ccc(S(F)(F)(F)(F)F)cc1)c1cocn1` [Compound 81, 4-(oxazol-4-yl)carbonylaminopentafluorosulfanylbenzene]: 2 µg/mL (≈ 6.36 µM).
For `COc1cc(/C=C/C(=O)Nc2ccc(S(F)(F)(F)(F)F)cc2)ccc1O` [Compound 21, 4-(4-hydroxy-3-methoxycinnamoylamino)pentafluorosulfanylbenzene], the IC50 under setting [1] turned out to be 0.93 µg/mL (≈ 2.35 µM).
With `O=C(Nc1ccc(S(F)(F)(F)(F)F)cc1)c1cc(O)ncn1` [Compound 69, 4-(4-hydroxypyrimidin-6-yl)carbonylaminopentafluorosulfanylbenzene], the IC50 under setting [1] was determined as 2 µg/mL (≈ 5.86 µM).
In the case of `O=C(Nc1ccc(S(F)(F)(F)(F)F)cc1)c1ccccc1` [Compound 1, 4-benzoylaminopentafluorosulfanylbenzene], half-maximal inhibition (Homo sapiens, K562, 72 h) (IC50) required 1.5 µg/mL (≈ 4.64 µM).
For the molecule `O=C(Nc1ccc(S(F)(F)(F)(F)F)cc1)c1ccc([N+](=O)[O-])cc1` [Compound 62, 4-(4-nitrobenzoylamino)pentafluorosulfanylbenzene], under setting [1], the IC50 was 0.78 µg/mL (≈ 2.12 µM).
Same read-out and setting: next, `O=C(Nc1ccc(S(F)(F)(F)(F)F)cc1)c1ccncn1` [Compound 73, 4-(pyrimidin-4-yl)carbonylaminopentafluorosulfanylbenzene]: 2.3 µg/mL (≈ 7.07 µM).
